Measurements from patent publication US20140287447A1, “Ultrasensitive methodology for quantifying the kinase catalytic activity of any protein kinase in biological/clinical samples or recombinant/purified proteins using near-infrared-fluorescence (NIRF)-labeled, kinase-selective peptide substrates and a combination of kinase-selective inhibitors to …” (priority 2013, published 2014).

Assays:
[1] = test system: MDA-MB-231 breast cancer cell lysates; assay: NIRF-based kinase reaction in breast cancer cell lysates with and without PKC-inhibitor cocktail; format: biochemical; details: cGMP 10 μM, MDA-MB-231 cell lysates
Method: This allows simultaneous determination of PKG-I kinase activity in MDA-MB-231 breast cancer cell lysates (D).
Each reagent has been previously experimentally tested to be the optimum concentration used for a complete radioactive-free kinase reaction to measure PKG kinase activity. The reagents for homogenizing buffer include: 20 mM Potassium phosphate (pH 7.0), 10 mM EDTA, 0.5 mM isobutylmethylxanthine, and 10 mM DTT.
Table 5 is the disclosure protocol that is illustrated as a work flow in FIG. 7. Biological samples can be prepared in the homogenizing buffer (Table 4) using a variety of techniques. These techniques include, but are not limited to: sonication, dounce-homogenation, the use of a tissue grinder, and/or a detergent specialized for lysing cells. Once a biological sample is prepared in the specially formulated homogenizing buffer from Table 4 or purified/recombinant protein buffer recommended by the manufacturer (2) included in the disclosure, the sample can be added to a sterile microfuge tube containing the radioactive-free kinase reaction mixture containing NIRF-Histone-H2B(29-35) (Table 3 and FIG. 1) (4). The kinase reaction typically requires an incubation chamber capable of reaching a temperature of 30° C. to incubate the samples. The time and temperature of incubation is determined by the researcher, but short incubation times of 2 minutes can be used. […]

[2] = substrate: Nc1ncnc2c1ncn2[C@@H]1O[C@H](COP(=O)(O)OP(=O)(O)OP(=O)(O)O)[C@@H](O)[C@H]1O; assay: purified protein, by the assay type; details: 30.0 °C

For `Nc1nc2c(ncn2[C@@H]2O[C@@H]3COP(=O)(O)O[C@H]3[C@H]2O)c(=O)[nH]1` [cGMP, cyclic guanosine monophosphate], the “effect of exogenously-added cGMP on kinase activity in cell lysates” value [1] was “does not cause increased kinase activity”.

B1: recombinant PKG-Iα (rPKG-Iα) (Homo sapiens) (protein)
chain: MSELEEDFAKILMLKEERIKELEKRLSEKEEEIQELKRKLHKCQSVLPVPSTHIGPRTTRAQGISAEPQTYRSFHDLRQAFRKFTKSERSKDLIKEAILDNDFMKNLELSQIQEIVDCMYPVEYGKDSCIIKEGDVGSLVYVMEDGKVEVTKEGVKLCTMGPGKVFGELAILYNCTRTATVKTLVNVKLWAIDRQCFQTIMMRTGLIKHTEYMEFLKSVPTFQSLPEEILSKLADVLEETHYENGEYIIRQGARGDTFFIISKGTVNVTREDSPSEDPVFLRTLGKGDWFGEKALQGEDVRTANVIAAEAVTCLVIDRDSFKHLIGGLDDVSNKAYEDAEAKAKYEAEAAFFANLKLSDFNIIDTLGVGGFGRVELVQLKSEESKTFAMKILKKRHIVDTRQQEHIRSEKQIMQGAHSDFIVRLYRTFKDSKYLYMLMEACLGGELWTILRDRGSFEDSTTRFYTACVVEAFAYLHSKGIIYRDLKPENLILDHRGYAKLVDFGFAKKIGFGKKTWTFCGTPEYVAPEIILNKGHDISADYWSLGILMYELLTGSPPFSGPDPMKTYNIILRGIDMIEFPKKIAKNAANLIKKLCRDNPSERLGNLKNGVKDIQKHKWFEGFNWEGLRKGTLTPPIIPSVASPTDTSNFDSFPEDNDEPPPDDNSGWDIDF
In the case of B1, the Km [2] is reported as 8.8 µM.
